The compounds below were run against human GPR40 receptor (Homo sapiens, UniProt O14842) (assay: IP1 accumulation measurements using the IPOne assay system in 1321N1 cells stably expressing human GPR40 receptor). Details: stimulation 1 h at 37° C.
Sequence of human GPR40 receptor (O14842 whole entry): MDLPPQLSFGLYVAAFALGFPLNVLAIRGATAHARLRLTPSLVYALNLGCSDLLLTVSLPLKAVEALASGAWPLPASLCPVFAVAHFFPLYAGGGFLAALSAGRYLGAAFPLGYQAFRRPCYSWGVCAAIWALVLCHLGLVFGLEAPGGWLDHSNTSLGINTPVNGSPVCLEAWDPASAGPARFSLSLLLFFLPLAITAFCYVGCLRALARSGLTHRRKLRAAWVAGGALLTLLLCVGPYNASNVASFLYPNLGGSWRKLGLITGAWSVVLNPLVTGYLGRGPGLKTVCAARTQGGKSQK
Type: cell-based
Procedure: IP1 accumulation measurements using the IPOne assay system—1321N1 cells stably expressing human GPR40 receptor (Euroscreen, Belgium) are seeded 24 h before the assay in white 384-well plates in culture medium containing 10% FCS, 1% Na-Pyruvate and 400 μg/mL G418. IP1 is assayed according to the manufacturer's description (Cisbio Bioassays, France). In brief, the assay is started by substitution of the culture medium by stimulation buffer (Hepes 10 mM, CaCl2 1 mM, MgCl2 0.5 mM, KCl 4.2 mM, NaCl 146 mM, glucose 5.5 mM and LiCl 50 mM, pH 7.4). Cells are stimulated for 1 h at 37° C., 5% CO2 by addition of the compounds that are diluted in stimulation buffer containing LiCl. Assays are stopped by adding HTRF-conjugates (IP1-d2 and Anti-IP1 cryptate Tb) and lysis buffer, provided by the manufacturer. After an incubation time of 1 h at room temperature plates are measured using an EnVision™, Perkin Elmer. The obtained fluorescence ratios at 665/615 […] are then used to calculate the pEC50 values using Assay Explorer 3.3 Software (Accelrys, Inc.) by interpolation using an IP1 reference curve and subsequent sigmoidal curve fitting allowing for a variable hill slope.
O=C(O)C[C@@H]1COc2cc(O[C@@H]3CCc4c3ccc(C(F)(F)F)c4CN3CCc4ccccc4C3)ccc21 [Example 29, {(S)-6-[(R)-4-(3,4-Dihydro-isoquinolin-2-ylmethyl)-5-trifluoromethyl-indan-1-yloxy]-2,3-dihydro-benzofuran-3-yl}-acetic acid] showed an EC50 of 3 nM. Compound O=C(O)C[C@@H]1COc2cc(O[C@@H]3CCc4c3ccc(C(F)(F)F)c4CN3CCc4ncsc4C3)ccc21 [Example 30, {(S)-6-[(R)-4-(6,7-Dihydro-thiazolo[5,4-c]pyridin-5-ylmethyl)-5-trifluoromethyl-indan-1-yloxy]-2,3-dihydro-benzofuran-3-yl}-acetic acid] has an EC50 of 3 nM. For Cn1cc2c(n1)CCN(Cc1c(C(F)(F)F)ccc3c1CC[C@H]3Oc1ccc3c(c1)OC[C@H]3CC(=O)O)C2 [Example 31, {(S)-6-[(R)-4-(2-Methyl-2,4,6,7-tetrahydro-pyrazolo[4,3-c]pyridin-5-ylmethyl)-5-trifluoromethyl-indan-1-yloxy]-2,3-dihydro-benzofuran-3-yl}-acetic acid], the EC50 was 2 nM. With O=C(O)C[C@@H]1COc2cc(O[C@@H]3CCc4c3ccc(C(F)(F)F)c4CN3CCc4ccsc4C3)ccc21 [Example 32, {(S)-6-[(R)-4-(4,7-Dihydro-thieno[2,3-c]pyridin-6-ylmethyl)-5-trifluoromethyl-indan-1-yloxy]-2,3-dihydro-benzofuran-3-yl}-acetic acid] the EC50 was 2 nM. For O=C(O)C[C@@H]1COc2cc(O[C@@H]3CCc4c3ccc(C(F)(F)F)c4CN3CCn4nccc4C3)ccc21 [Example 33, {(S)-6-[(R)-4-(6,7-Dihydro-pyrazolo[1,5-a]pyrazin-5-ylmethyl)-5-trifluoromethyl-indan-1-yloxy]-2,3-dihydro-benzofuran-3-yl}-acetic acid], the EC50 was 2 nM. O=C(O)C[C@@H]1COc2cc(O[C@@H]3CCc4c3ccc(C(F)(F)F)c4CN3CCc4nocc4C3)ccc21 [Example 34, {(S)-6-[(R)-4-(6,7-Dihydro-isoxazolo[4,3-c]pyridin-5-ylmethyl)-5-trifluoromethyl-indan-1-yloxy]-2,3-dihydro-benzofuran-3-yl}-acetic acid] gave an EC50 of 3 nM. Compound Cc1nc2c(o1)CCN(Cc1c(C(F)(F)F)ccc3c1CC[C@H]3Oc1ccc3c(c1)OC[C@H]3CC(=O)O)C2 [Example 35, {(S)-6-[(R)-4-(2-Methyl-6,7-dihydro-oxazolo[4,5-c]pyridin-5-ylmethyl)-5-trifluoromethyl-indan-1-yloxy]-2,3-dihydro-benzofuran-3-yl}-acetic acid] has an EC50 of 3 nM.

— US8927531B2, “Indanyloxydihydrobenzofuranylacetic acids” (Boehringer Ingelheim International GmbH, priority 2013, dated 2015)
